Reference: the Kinase Knowledgebase extract (Sharma et al. 2016)
Values joined by “and” are separate entries in the source; they are usually repeats but may differ in a detail not shown here. Equal values may be shown once.

The compounds below were run against MAPK14 (human) (UniProt Q16539) (assay: Inhibition of LPS Stimulated TNF Production by U937 Cells). Details: not given.
Chain of MAPK14 (human) (Q16539 whole entry, looked up): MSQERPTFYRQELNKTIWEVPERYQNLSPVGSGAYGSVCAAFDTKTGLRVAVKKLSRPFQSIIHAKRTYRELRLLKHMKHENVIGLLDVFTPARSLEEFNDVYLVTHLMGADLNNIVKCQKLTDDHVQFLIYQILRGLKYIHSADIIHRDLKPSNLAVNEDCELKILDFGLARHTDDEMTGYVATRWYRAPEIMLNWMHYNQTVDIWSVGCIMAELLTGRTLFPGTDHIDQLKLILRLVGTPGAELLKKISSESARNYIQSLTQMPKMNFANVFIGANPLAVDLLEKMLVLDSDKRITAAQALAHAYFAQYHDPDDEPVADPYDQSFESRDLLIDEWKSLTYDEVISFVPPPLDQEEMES

Row | Compound | IC50
1 | CC(C)COC(=O)NCc1[nH]nc(-c2ccc(F)cc2)c1-c1ccncc1 | 0.72 µM
2 | OCCn1cc(-c2ccnc(NCc3ccc(F)cc3)c2)c(-c2ccc(F)cc2)n1 | 0.14 µM and 0.8 µM
3 | CN(C)c1n[nH]c(-c2ccc(F)cc2)c1-c1ccncc1 | 0.484 µM
4 | Fc1ccc(-c2nn(CCN3CCOCC3)cc2-c2ccnc(F)c2)cc1 | > 10 µM
5 | O=C(N[C@H](Cc1ccccc1)c1[nH]nc(-c2ccc(F)cc2)c1-c1ccncc1)c1ccc(F)cc1 | > 1 µM
6 | O=S(=O)(c1ccccc1F)N1CCC(c2[nH]nc(-c3ccc(F)cc3)c2-c2ccncc2)CC1 | 5 µM
7 | Fc1ccc(-c2n[nH]cc2-c2ccnc(-c3c[nH]nc3-c3ccc(F)cc3)c2)cc1 | 0.602 µM
8 | Fc1ccc(-c2n[nH]cc2-c2ccnc(NCc3cccc(F)c3)c2)cc1 | 0.141 µM
9 | Cc1[nH]nc(-c2ccc(F)cc2)c1-c1ccncc1 | 0.222 µM
10 | C#CCn1ncc(-c2ccncc2)c1-c1ccc(F)cc1 | > 10 µM
11 | Cn1cc(-c2ccncc2)c(-c2cccc(F)c2)n1 | 0.462 µM
12 | COc1ccc(CC(=O)N[C@H](Cc2ccccc2)c2[nH]nc(-c3ccc(F)cc3)c2-c2ccncc2)cc1 | > 1 µM
13 | O=C(C1CC1)N1CCC(c2[nH]nc(-c3ccc(F)cc3)c2-c2ccncc2)CC1 | 0.27 µM
14 | Fc1ccc(-c2nn(CCN3CCOCC3)cc2-c2ccncc2)cc1 | 1.83 µM
15 | CC[C@H](C)CNc1cc(-c2c[nH]nc2-c2ccc(Cl)cc2)ccn1 | 0.0337 µM
16 | FC(F)(F)c1cccc(-c2n[nH]cc2-c2ccncc2)c1 | 0.087 µM
17 | O=C(Nc1ccccc1F)N1CCC(c2[nH]nc(-c3ccc(F)cc3)c2-c2ccncc2)CC1 | 0.092 µM

Now from value to compound:

Row | IC50 | Compound
18 | 5 µM | CC(C)S(=O)(=O)NCc1[nH]nc(-c2ccc(F)cc2)c1-c1ccncc1
19 | < 1 µM | COc1ccc(S(=O)(=O)N[C@@H](Cc2ccccc2)c2[nH]nc(-c3ccc(F)cc3)c2-c2ccncc2)cc1OC
20 | 1.01 µM | CC(C)C(=O)N[C@@H](C)c1[nH]nc(-c2ccc(F)cc2)c1-c1ccncc1
21 | 38 µM | CCCNC(=O)N[C@@H](C)c1[nH]nc(-c2ccc(F)cc2)c1-c1ccncc1
22 | > 1 µM | CNC(=O)CC[C@H](NC(=O)c1ccc(C)cc1)c1[nH]nc(-c2ccc(F)cc2)c1-c1ccncc1
23 | > 1 µM | CC(C)c1ccc(S(=O)(=O)NCc2[nH]nc(-c3ccc(F)cc3)c2-c2ccncc2)cc1

Same assay, conditions: concentration not given here

Row | Compound | inhibition [%]
24 | O=S(=O)(c1c(F)cccc1F)N1CCC(c2[nH]nc(-c3ccc(F)cc3)c2-c2ccncc2)CC1 | 8
25 | O=C(NCc1[nH]nc(-c2ccc(F)cc2)c1-c1ccncc1)c1cccnc1 | 16
26 | Cc1onc(-c2ccccc2Cl)c1C(=O)NCc1[nH]nc(-c2ccc(F)cc2)c1-c1ccncc1 | 21
27 | O=C(NCc1[nH]nc(-c2ccc(F)cc2)c1-c1ccncc1)C1CCC1 | 28
28 | CNC(=O)CC[C@H](NC(=O)Nc1c(C)cccc1C)c1[nH]nc(-c2ccc(F)cc2)c1-c1ccncc1 | 9
29 | CC(C)c1cc(C(C)C)c(C(=O)N[C@@H](C)c2[nH]nc(-c3ccc(F)cc3)c2-c2ccncc2)c(C(C)C)c1 | 42
30 | O=C(NCCCc1[nH]nc(-c2ccc(F)cc2)c1-c1ccncc1)NCc1ccccn1 | 10
31 | CNC(=O)CC[C@H](NC(=O)C(C)C)c1[nH]nc(-c2ccc(F)cc2)c1-c1ccncc1 | 25
32 | Cc1cccc(S(=O)(=O)N2CCC(c3[nH]nc(-c4ccc(F)cc4)c3-c3ccncc3)CC2)c1 | 1
33 | O=C(NCCc1[nH]nc(-c2ccc(F)cc2)c1-c1ccncc1)c1ccc(C(F)(F)F)cc1 | 30
34 | O=C(NCc1ccc(S(=O)(=O)NCc2[nH]nc(-c3ccc(F)cc3)c2-c2ccncc2)s1)c1ccccc1 | 68
35 | O=C(NCc1[nH]nc(-c2ccc(F)cc2)c1-c1ccncc1)c1ccccc1Br | 50
36 | CCCNC(=O)NCc1[nH]nc(-c2ccc(F)cc2)c1-c1ccncc1 | 39
37 | CCCNC(=O)Cn1nc(-c2ccc(F)cc2)c(-c2ccncc2)c1C | 31
38 | COc1ccc(C(=O)NCc2[nH]nc(-c3ccc(F)cc3)c2-c2ccncc2)cc1OC | 22
39 | O=C(NCCCc1[nH]nc(-c2ccc(F)cc2)c1-c1ccncc1)NCCc1ccccn1 | 24
40 | Cc1noc(C)c1S(=O)(=O)NCc1[nH]nc(-c2ccc(F)cc2)c1-c1ccncc1 | 1
41 | C[C@@H](NC(=O)[C@@H]1CCCN1)c1[nH]nc(-c2ccc(F)cc2)c1-c1ccncc1 | 27
42 | O=C(NCCc1[nH]nc(-c2ccc(F)cc2)c1-c1ccncc1)c1ccc(F)cc1C(F)(F)F | 29
43 | O=C(NCc1[nH]nc(-c2ccc(F)cc2)c1-c1ccncc1)c1c(F)cccc1C(F)(F)F | 65
44 | O=C(NCc1[nH]nc(-c2ccc(F)cc2)c1-c1ccncc1)[C@@H]1CCCN1 | 22
45 | O=C(NCc1[nH]nc(-c2ccc(F)cc2)c1-c1ccncc1)c1ccc(C(F)(F)F)cc1 | 24
46 | CN(C)CCNC(=O)NCCCc1[nH]nc(-c2ccc(F)cc2)c1-c1ccncc1 | 11

More lines, now with the values ahead:

Row | inhibition [%] | Compound
47 | 11 | C[C@@H](NC(=O)c1cc(Cl)cc(Cl)c1)c1[nH]nc(-c2ccc(F)cc2)c1-c1ccncc1
48 | 36 | Cc1ccc(C)c(S(=O)(=O)NCCCc2[nH]nc(-c3ccc(F)cc3)c2-c2ccncc2)c1
49 | 10 | COc1ccc(S(=O)(=O)NCc2[nH]nc(-c3ccc(F)cc3)c2-c2ccncc2)c([N+](=O)[O-])c1
50 | 23 | Cc1ccc(S(C)(=O)=O)cc1S(=O)(=O)NCc1[nH]nc(-c2ccc(F)cc2)c1-c1ccncc1
51 | 36 | Cc1ccc(S(=O)(=O)N[C@@H](Cc2ccccc2)C(=O)NCCCc2[nH]nc(-c3ccc(F)cc3)c2-c2ccncc2)cc1
52 | 34 | Cc1ccccc1C(=O)N[C@@H](C)c1[nH]nc(-c2ccc(F)cc2)c1-c1ccncc1
53 | 3 | CNC(=O)CC[C@H](NC(=O)Cc1cccc(OC)c1)c1[nH]nc(-c2ccc(F)cc2)c1-c1ccncc1
54 | 61 | CCCOC(=O)N[C@@H](C)c1[nH]nc(-c2ccc(F)cc2)c1-c1ccncc1
55 | 29 | Cc1c(Cl)cccc1S(=O)(=O)NCCc1[nH]nc(-c2ccc(F)cc2)c1-c1ccncc1
56 | 92 | CCc1ccc(S(=O)(=O)N[C@@H](C)c2[nH]nc(-c3ccc(F)cc3)c2-c2ccncc2)cc1
57 | 21 | C[C@H](NC(=O)c1cccc(F)c1)c1[nH]nc(-c2ccc(F)cc2)c1-c1ccncc1
58 | 78 | C[C@H](NS(=O)(=O)c1cccc2nonc12)c1[nH]nc(-c2ccc(F)cc2)c1-c1ccncc1
59 | 24 | C[C@@H](NC(=O)c1ccccn1)c1[nH]nc(-c2ccc(F)cc2)c1-c1ccncc1
60 | 52 | C[C@@H](NC(=O)c1cccc(F)c1)c1[nH]nc(-c2ccc(F)cc2)c1-c1ccncc1
61 | 25 | COc1ccc(S(=O)(=O)N[C@H](C)c2[nH]nc(-c3ccc(F)cc3)c2-c2ccncc2)cc1OC
62 | 52 | CC(C)S(=O)(=O)N[C@H](C)c1[nH]nc(-c2ccc(F)cc2)c1-c1ccncc1
63 | 18 | C[C@@H](NS(=O)(=O)C(F)(F)F)c1[nH]nc(-c2ccc(F)cc2)c1-c1ccncc1
64 | 40 | CC(C)C(=O)N[C@H](C)c1[nH]nc(-c2ccc(F)cc2)c1-c1ccncc1
65 | 48 | C[C@@H](NC(=O)c1ccc(C(F)(F)F)cc1F)c1[nH]nc(-c2ccc(F)cc2)c1-c1ccncc1
66 | 68 | C[C@@H](NS(=O)(=O)c1ccc(-c2ccccn2)s1)c1[nH]nc(-c2ccc(F)cc2)c1-c1ccncc1
67 | 1 | CNC(=O)CC[C@H](NS(=O)(=O)c1ccccc1F)c1[nH]nc(-c2ccc(F)cc2)c1-c1ccncc1
68 | 77 | C[C@H](NS(=O)(=O)c1c(Cl)cccc1Cl)c1[nH]nc(-c2ccc(F)cc2)c1-c1ccncc1
69 | 94 | Cc1ccccc1S(=O)(=O)N[C@@H](C)c1[nH]nc(-c2ccc(F)cc2)c1-c1ccncc1

Row | inhibition [%] | Compound
70 | 45 | CCCCS(=O)(=O)N[C@H](C)c1[nH]nc(-c2ccc(F)cc2)c1-c1ccncc1
71 | 27 | C[C@H](NC(=O)c1ccc(F)c(C(F)(F)F)c1)c1[nH]nc(-c2ccc(F)cc2)c1-c1ccncc1
72 | 17 | C[C@H](NC(=O)c1cccc(Cl)c1Cl)c1[nH]nc(-c2ccc(F)cc2)c1-c1ccncc1
73 | 41 | C[C@H](NC(=O)N[C@H](C)c1ccccc1)c1[nH]nc(-c2ccc(F)cc2)c1-c1ccncc1
74 | 24 | Cc1ccccc1S(=O)(=O)NCc1[nH]nc(-c2ccc(F)cc2)c1-c1ccncc1
75 | 68 | O=S(=O)(NCc1[nH]nc(-c2ccc(F)cc2)c1-c1ccncc1)c1ccccc1Br
76 | 87 | C[C@H](NS(=O)(=O)c1ccc(Br)cc1)c1[nH]nc(-c2ccc(F)cc2)c1-c1ccncc1
77 | 81 | COc1ccc(OC)c(S(=O)(=O)N[C@H](C)c2[nH]nc(-c3ccc(F)cc3)c2-c2ccncc2)c1
78 | 87 | C[C@@H](NC(=O)c1ccccc1Br)c1[nH]nc(-c2ccc(F)cc2)c1-c1ccncc1
79 | 63 | O=S(=O)(NCc1[nH]nc(-c2ccc(F)cc2)c1-c1ccncc1)c1ccc(-c2ccccn2)s1
80 | 91 | C[C@H](NS(=O)(=O)c1ccc(-c2ccccc2)cc1)c1[nH]nc(-c2ccc(F)cc2)c1-c1ccncc1
81 | 25 | C[C@H](NC(=O)N[C@H](C)c1[nH]nc(-c2ccc(F)cc2)c1-c1ccncc1)c1ccccc1
82 | 27 | CC(=O)O[C@@H](C)C(=O)N[C@H](C)c1[nH]nc(-c2ccc(F)cc2)c1-c1ccncc1
83 | 97 | C[C@@H](NS(=O)(=O)c1cccc(Cl)c1)c1[nH]nc(-c2ccc(F)cc2)c1-c1ccncc1
84 | 87 | C[C@@H](NC(=O)c1ccccc1Cl)c1[nH]nc(-c2ccc(F)cc2)c1-c1ccncc1
85 | 28 | C[C@H](NC(=O)c1ccc(Cl)cc1Cl)c1[nH]nc(-c2ccc(F)cc2)c1-c1ccncc1
86 | 56 | C[C@H](NC(=O)c1c(F)cccc1F)c1[nH]nc(-c2ccc(F)cc2)c1-c1ccncc1
87 | 58 | C[C@H](NS(=O)(=O)c1cccc2cccnc12)c1[nH]nc(-c2ccc(F)cc2)c1-c1ccncc1
88 | 53 | CC(C)OC(=O)N[C@@H](C)c1[nH]nc(-c2ccc(F)cc2)c1-c1ccncc1
89 | 25 | C[C@@H](NC(=O)c1ccc(I)cc1)c1[nH]nc(-c2ccc(F)cc2)c1-c1ccncc1
90 | 46 | O=S(=O)(NCc1[nH]nc(-c2ccc(F)cc2)c1-c1ccncc1)c1ccccc1C(F)(F)F
91 | 70 | C[C@@H](NC(=O)c1cccs1)c1[nH]nc(-c2ccc(F)cc2)c1-c1ccncc1
